We go through 22 molecules from US9605005B2, “Alkynyl alcohols and methods of use” (Genentech, Inc., priority 2013, dated 2017).

In test [1] the target is nuclear factor-kappa B (NF-kB)-inducing kinase (NIK) (Homo sapiens (Human), UniProt Q99558). The experiment in a line: NIK enzyme inhibition assay (Transcreener ADP, NIK ADP-FP). The format is biochemical. The conditions noted are these: purified NIK 0.5 nM, 10 μM ATP, fluorescence polarization; read-out: NIK ADP-FP (Ki μM). Background: Fluorescence polarisation rises when a labelled molecule tumbles more slowly, as on binding a larger partner.

The test system of test [2] is REL-A (p65) nuclear translocation, HeLa cells. The experiment in a line: REL-A (p65) nuclear translocation assay in HeLa cells (classical NF-kB signaling, TNF-α stimulated). The format is cell-based. The settings on record: Homo sapiens, 0.5 h; HeLa cells, 10 ng/mL TNF-α for 30 minutes; read-out: REL-A HeLa Transloc Assay (IC50). A digest of the protocol: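 HeLa cells were exposed to test compounds at various concentrations (0.2% DMSO final) in medium with 10% fetal bovine serum for 4.5 hours, then stimulated for 30 minutes with 10 ng/mL TNF-α. After fixation in 4% paraformaldehyde, 0.1% Triton X-100 permeabilization and staining with 400 ng/mL anti-REL-A (p65) antibody, Alexa488 secondary and DRAQ5, Opera imaging gave nuclear-to-cytoplasmic signal ratios to calculate IC50.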

In test [3] the test system is p52 (NF-kB2) nuclear translocation, HeLa cells. Description: p52 (NF-kB2) nuclear translocation assay in HeLa cells (non-classical NF-kB signaling, anti-lymphotoxin beta receptor antibody stimulated). In kind it is cell-based. The conditions noted are these: Homo sapiens, 100 ng/mL anti-lymphotoxin beta receptor antibody for 5 hours, read-out: p52 HeLa Transloc Assay (IC50). The gist of the method:
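HeLa cells in 10% FBS medium were treated with compound (0.2% DMSO final) and stimulated with 100 ng/mL anti-lymphotoxin beta receptor antibody for 5 h. Fixed cells were immunostained for p52 and imaged with DRAQ5 nuclear stain. Translocation is the nuclear to cytoplasmic intensity ratio, and IC50 values are in micromolar.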

As a reminder, the Ki is a measure of affinity in units of concentration, obtained from inhibition or displacement. What is called IC50 is the concentration at which inhibition is half-maximal.

nuclear factor-kappa B (NF-kB)-inducing kinase (NIK), sequence (Q99558 whole entry): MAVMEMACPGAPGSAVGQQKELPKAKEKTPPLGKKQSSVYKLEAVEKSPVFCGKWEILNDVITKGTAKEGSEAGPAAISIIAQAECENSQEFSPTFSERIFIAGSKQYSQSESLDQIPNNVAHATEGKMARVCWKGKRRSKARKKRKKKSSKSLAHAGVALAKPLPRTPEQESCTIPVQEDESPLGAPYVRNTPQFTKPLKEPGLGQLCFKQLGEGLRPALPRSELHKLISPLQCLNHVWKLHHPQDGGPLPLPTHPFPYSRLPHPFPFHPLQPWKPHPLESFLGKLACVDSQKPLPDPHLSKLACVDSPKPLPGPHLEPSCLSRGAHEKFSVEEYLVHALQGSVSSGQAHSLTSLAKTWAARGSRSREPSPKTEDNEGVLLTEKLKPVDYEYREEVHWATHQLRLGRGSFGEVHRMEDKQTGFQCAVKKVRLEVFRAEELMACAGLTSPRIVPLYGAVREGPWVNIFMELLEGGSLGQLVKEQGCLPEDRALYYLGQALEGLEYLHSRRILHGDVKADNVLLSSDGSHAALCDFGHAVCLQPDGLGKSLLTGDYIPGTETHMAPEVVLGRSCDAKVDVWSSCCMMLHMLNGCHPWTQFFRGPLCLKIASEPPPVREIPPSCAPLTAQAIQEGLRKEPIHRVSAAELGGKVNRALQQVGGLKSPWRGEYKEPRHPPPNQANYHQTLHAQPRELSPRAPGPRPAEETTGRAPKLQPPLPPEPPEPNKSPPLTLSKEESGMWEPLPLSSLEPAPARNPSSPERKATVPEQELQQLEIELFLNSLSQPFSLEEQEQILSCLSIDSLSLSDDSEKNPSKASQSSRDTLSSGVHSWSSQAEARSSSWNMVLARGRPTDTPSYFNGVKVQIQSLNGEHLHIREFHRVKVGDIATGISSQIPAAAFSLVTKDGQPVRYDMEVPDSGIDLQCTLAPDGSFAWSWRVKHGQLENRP

Take `Cc1ncc2c(C(N)=O)nn(-c3cccc(C#C[C@]4(O)CCN(C)C4=O)c3)c2n1` [Compound 157, 1-[3-[2-[(3R)-3-hydroxy-1-methyl-2-oxo-pyrrolidin-3-yl]ethynyl]phenyl]-6-methyl-pyrazolo[3,4-d]pyrimidine-3-carboxamide]: the Ki in test [1] was 0.68 nM. The IC50 in test [2] was 2000 nM; in test [3], 157 nM.

In the case of `CN1CC[C@@](O)(C#Cc2cccc(-n3nc(C(N)=O)c4cnc(C5CC5)nc43)c2)C1=O` [Compound 158, 6-cyclopropyl-1-[3-[2-[(3R)-3-hydroxy-1-methyl-2-oxo-pyrrolidin-3-yl]ethynyl]phenyl]pyrazolo[3,4-d]pyri-midine-3-carboxamide], the Ki in test [1] turned out to be 0.23 nM. The IC50 in test [2] came out at 2000 nM; in test [3] it was 46.2 nM.

As to `CN1CC[C@@](O)(C#Cc2cccc(-n3nc(C(N)=O)c4cnc(C(F)(F)F)nc43)c2)C1=O` [Compound 159, 1-[3-[2-[(3R)-3-hydroxy-1-methyl-2-oxo-pyrrolidin-3-yl]ethynyl]phenyl]-6-(trifluoro-methyl)pyrazolo[3,4-d] pyrimidine-3-carboxamide], the Ki in test [1] was 7.13 nM. For the same molecule, the IC50 in test [2] and in test [3] was 2000 nM throughout.

Turning to `COc1ncc2c(C(N)=O)nn(-c3cccc(C#C[C@]4(O)CCN(C)C4=O)c3)c2n1` [Compound 160, 1-[3-[2-[(3R)-3-hydroxy-1-methyl-2-oxo-pyrrolidin-3-yl]ethynyl]phenyl]-6-methoxy-pyrazolo[3,4-d]pyrimidine-3-carboxamide], the Ki in test [1] was 0.13 nM. Further, the IC50 in test [2] was 20000 nM; in test [3], 66.8 nM.

On to `CN1CC[C@@](O)(C#Cc2cccc(-n3nc(C(N)=O)c4cc(OCCN5CCC5)ccc43)c2)C1=O` [Compound 161, 5-[2-(azetidin-1-yl)ethoxy]-1-[3-[2-[(3R)-3-hydroxy-1-methyl-2-oxo-pyrrolidin-3-yl]ethynyl]phenyl]indazole-3-carboxamide], for which the Ki in test [1] stood at 2.52 nM. Moreover, the figures for the IC50 in test [2] and in test [3] were 2000 nM and 770 nM, respectively.

Turning to `CN1CC[C@@](O)(C#Cc2cccc(-n3nc(C(N)=O)c4cc(OCCN5CCOCC5)ccc43)c2)C1=O` [Compound 162, 1-[3-[2-[(3R)-3-hydroxy-1-methyl-2-oxo-pyrrolidin-3-yl]ethynyl]phenyl]-5-(2-morpho-linoethoxy)indazole-3-carboxamide], the Ki in test [1] was 0.35 nM. The values for the IC50 in test [2] and in test [3] were 2000 nM and 237 nM, respectively.

Take `CN1CC[C@@](O)(C#Cc2cccc(-n3nc(C(N)=O)c4ncccc43)c2)C1=O` [Compound 164, 1-[3-[2-[(3R)-3-hydroxy-1-methyl-2-oxo-pyrrolidin-3-yl]ethynyl]phenyl)pyrazolo [4,3-b]pyridine-3-carboxamide]: in test [1], the Ki came to 1.54 nM. Further, the values for the IC50 in test [2] and in test [3] were 20000 nM and 208 nM, respectively.

On to `CCOC(=O)N1CCc2c(c(C(N)=O)nn2-c2cc(C#C[C@]3(O)CCN(C)C3=O)ccn2)C1` [Compound 165, ethyl 3-carbamoyl-1-[4-[2-[(3R)-3-hydroxy-1-methyl-2-oxo-pyrrolidin-3-yl]ethynyl]-2-pyridyl]-6,7-dihydro-4H-pyra-zolo[4,3-c]pyridine-5-car-boxylate], for which the inhibition constant Ki in test [1] stood at 0.23 nM. Further, the IC50 in test [2] came out at 20000 nM; in test [3] it was 274 nM.

On to `CN1CC[C@@](O)(C#Cc2cc(-n3nc(C(N)=O)c4c3CCCC4)ccn2)C1=O` [Compound 166, 1-[2-[2-[(3R)-3-hydroxy-1-methyl-2-oxo-pyrrolidin-3-yl]ethynyl]-4-pyridyl]-4,5,6,7-tetrahydroindazole-3-carbox-amide], for which, in test [1], the Ki came out at 1.19 nM. In addition, the IC50 in test [2] stood at 20000 nM; in test [3], 320 nM.

For the molecule `CN1CC[C@@](O)(C#Cc2cc(-n3nc(C(N)=O)c4c3CCCC4)ccc2C#N)C1=O` [Compound 167, 1-[4-cyano-3-[2-[(3R)-3-hy-droxy-1-methyl-2-oxo-pyrroli-din-3-yl]ethynyl]phenyl]-4,5,6,7-tetrahydroindazole-3-carboxamide], the Ki in test [1] was found to be 1.93 nM. For the same molecule, the IC50 in test [2] was 20000 nM; in test [3], 397 nM.

Turning to `CN1CC[C@@](O)(C#Cc2cccc(-n3nc(C(N)=O)c4c3[C@H](O)CC4)c2)C1=O` [Compound 169, (6R)-6-hydroxy-1-[3-[2-[(3R)-3-hydroxy-1-methyl-2-oxo-pyrrolidin-3-yl]ethynyl]phenyl]-5,6-dihydro-4H-cyclo-penta[c]pyrazole-3-carbox-amide], in test [1], the Ki was found to be 2.96 nM. In addition, the IC50 in test [2] was determined as 20000 nM; in test [3], 1120 nM.

Regarding `COc1cc2c(C(N)=O)nn(-c3cccc(C#C[C@]4(O)CCN(C)C4=O)c3)c2nn1` [Compound 173, 1-[3-[2-[(3R)-3-hydroxy-1-methyl-2-oxo-pyrrolidin-3-yl]ethynyl]phenyl]-5-methoxy-pyrazolo[3,4-c]pyridazine-3-carboxamide], the Ki in test [1] is 0.55 nM. Further, the IC50 in test [2] is 2000 nM; in test [3], 176 nM.

Consider `CN1CC[C@@](O)(C#Cc2cccc(-n3nc(C(N)=O)c4ccnnc43)c2)C1=O` [Compound 174, 1-[3-[2-[(3R)-3-hydroxy-1-methyl-2-oxo-pyrrolidin-3-yl]ethynyl]phenyl]pyrazolo [3,4-c]pyridazine-3-carbox-amide], for which the inhibition constant Ki in test [1] came out at 0.13 nM. Moreover, the IC50 in test [2] and in test [3] was 2000 nM in each case.

With `Cc1ccc2c(C(N)=O)nn(-c3cccc(C#C[C@]4(O)CCN(C)C4=O)c3)c2n1` [Compound 175, 1-[3-[2-[(3R)-3-hydroxy-1-methyl-2-oxo-pyrrolidin-3-yl]ethynyl]phenyl]-6-methyl-pyrazolo[3,4-b]pyridine-3-carboxamide], in test [1], the Ki came out at 0.05 nM. In addition, the IC50 in test [2] was over 2000 nM; in test [3] it was 135 nM.

As for `CN1CC[C@@](O)(C#Cc2cccc(-c3nc(C(N)=O)n4c3CCCC4)c2)C1=O` [Compound 177, (R)-1-(3-((3-hydroxy-1-methyl-2-oxopyrrolidin-3-yl)ethynyl)phenyl)-5,6,7,8-tetrahydroimidazo[1,5-a]pyridine-3-carboxamide], the Ki in test [1] was determined as 0.11 nM. Also, the IC50 was over 2000 nM in test [2] and 150 nM in test [3].

For the molecule `CN1CC[C@@](O)(C#Cc2cccc(-c3nc(C(N)=O)n4ccc(C(N)=O)cc34)c2)C1=O` [Compound 178, 1-[3-[2-[(3R)-3-hydroxy-1-methyl-2-oxo-pyrrolidin-3-yl]ethynyl]phenyl]imidazo [1,5-a]pyridine-3,7-dicarboxamide], in test [1], the Ki amounted to 0.1 nM. Besides, the IC50 was over 2000 nM in test [2] and 636 nM in test [3].

With `COc1ccn2c(C(N)=O)nc(-c3cccc(C#C[C@@](C)(O)c4nnc(C)o4)c3)c2c1` [Compound 181, 1-[3-[(3R)-3-hydroxy-3-(5-methyl-1,3,4-oxadiazol-2-yl)but-1-ynyl]phenyl]-7-methoxy-imidazo[1,5-a] pyridine-3-carboxamide], the Ki in test [1] stood at 0.1 nM. Besides, the IC50 in test [2] is over 2000 nM; in test [3], 48 nM.

On to `Cc1nnc([C@](C)(O)C#Cc2cccc(-c3nc(C(N)=O)n4cc(Cl)ccc34)c2)o1` [Compound 185, 6-chloro-1-[3-[(3R)-3-hydroxy-3-(5-methyl-1,3,4-oxadiazol-2-yl)but-1-ynyl]phenyl]imidazo[1,5-a]pyridine-3-carboxamide], for which the Ki in test [1] is 7.54 nM. Moreover, the IC50 is over 2000 nM in test [2] and 1500 nM in test [3].

Consider `CN1CC[C@@](O)(C#Cc2ccc(F)c(-c3nc(C(N)=O)n4cc(Cl)ccc34)c2)C1=O` [Compound 186, 6-chloro-1-[2-fluoro-5-[2-[(3R)-3-hydroxy-1-methyl-2-oxo-pyrrolidin-3-yl]ethynyl]phenyl]imidazo[1,5-a] pyridine-3-carboxamide], for which the Ki in test [1] was 0.1 nM. The figures for the IC50 in test [2] and in test [3] were over 2000 nM and 36 nM, respectively.

For `Cc1nnc([C@](C)(O)C#Cc2cccc(-c3nc(C(N)=O)n4ccc(Cl)cc34)c2)o1` [Compound 187, 7-chloro-1-[3-[(3R)-3-hydroxy-3-(5-methyl-1,3,4-oxadiazol-2-yl)but-1-ynyl]phenyl] imidazo[1,5-a]pyridine-3-carboxamide], the Ki in test [1] is 1.12 nM. For the same molecule, the IC50 in test [2] was over 2000 nM; in test [3], 198 nM.

Take `CC1Cc2c(C(N)=O)nn(-c3cccc(C#C[C@]4(O)CCN(C)C4=O)c3)c2C1` (stereo partly drawn) [Compound 188, 1-[3-[2-[(3R)-3-hydroxy-1-methyl-2-oxo-pyrrolidin-3-yl]ethynyl]phenyl]-5-methyl-5,6-dihydro-4H-cyclopenta [c]pyrazole-3-carboxamide]: the Ki in test [1] is 0.85 nM. The IC50 was over 2000 nM in test [2] and 205 nM in test [3].

On to `CN1CC[C@@](O)(C#Cc2cccc(-n3nc(C(N)=O)c4ccc(F)cc43)c2)C1=O` [Compound 189, 6-fluoro-1-[3-[2-[(3R)-3-hydroxy-1-methyl-2-oxo-pyrrolidin-3-yl]ethynyl]phenyl] indazole-3-carboxamide], for which the Ki in test [1] was found to be 0.05 nM. Further, the IC50 was over 2000 nM in test [2] and 95 nM in test [3].
